One series has as its system PDE4 Activity (L)PDE4. Briefly: IC50 for inhibition of PDE IV activity. The class given is biochemical. Particulars: origin Human. The source says:
(§1) The following determination of IC50 for inhibition of PDE IV activity and competition at the rolipram receptor, conducted with standard processes, e.g. as described by Duplantier A. J. et al., J. Med. Chem. 39: 120, 1996 and by Thorphy T. J. et al., J Pharmacol. Exp. Ther., 263: 1195, 1992 have yielded the following results for compounds figuring among the examples envisaged within the framework of the invention described herein

Another series deals with PDE IV. Briefly: PDE IV inhibition at a single concentration. The class given is biochemical. The following applies: human; concentration 100 μM. From the text:
Assays conducted with standard procedures, e.g. as described by Cortij et al., Br. J. Pharmacol. 108:562, 1993 or Nicholsen CD et al., Trends Pharmacol. Sci. 12:19, 1991 have yielded the following results for compounds figuring among the examples envisaged within the framework of the invention described herein.

For series [1], the system named is Rolipram receptor (H)PDE4. Briefly: competition at the rolipram receptor. In kind it is binding, Mouse. Particulars: ratio IC50 (H)PDE4 / IC50 (L)PDE4.
Text: as §1
(§2) N.C. means value not calculable because of no inhibition at the highest test concentration, however it means low affinity for rolipram receptor.

For series [2], the target named is T1, Rolipram receptor (H)PDE4.
T1 construct: IC50(μM) Rolipram receptor (H)PDE4; other: origin Mouse brain
Briefly: competition at the rolipram receptor. In kind it is binding, Mouse. The following applies: origin Mouse brain.
Text: as §1, §2

In a further series the test system is PDE4. Briefly: PDE selectivity, PDE4. In kind it is biochemical, human. From the text: (§3) These assays have yielded the following results for compounds figuring among the examples envisaged within the framework of the invention described herein.
The next series has as its system PDE3. Briefly: PDE selectivity, PDE3. The class given is biochemical, human.
Text: as §3

The test system of another series is PDE6. Nature of the series: PDE selectivity, PDE6. The class given is biochemical, bovine.
Text: as §3

The target in another series is PDE5 (Homo sapiens, UniProt O76074). Nature of the series: PDE selectivity, PDE5. In kind it is biochemical.
Text: as §3

For a further series, the target named is PDE2 (Homo sapiens, UniProt O00408). Nature of the series: PDE selectivity, PDE2. In kind it is biochemical.
Text: as §3

A further series relates to PDE1. Briefly: PDE selectivity, PDE1. In kind it is biochemical, bovine.
Text: as §3

Some results are limits rather than exact numbers.

Sequence of PDE2 (O00408 whole entry): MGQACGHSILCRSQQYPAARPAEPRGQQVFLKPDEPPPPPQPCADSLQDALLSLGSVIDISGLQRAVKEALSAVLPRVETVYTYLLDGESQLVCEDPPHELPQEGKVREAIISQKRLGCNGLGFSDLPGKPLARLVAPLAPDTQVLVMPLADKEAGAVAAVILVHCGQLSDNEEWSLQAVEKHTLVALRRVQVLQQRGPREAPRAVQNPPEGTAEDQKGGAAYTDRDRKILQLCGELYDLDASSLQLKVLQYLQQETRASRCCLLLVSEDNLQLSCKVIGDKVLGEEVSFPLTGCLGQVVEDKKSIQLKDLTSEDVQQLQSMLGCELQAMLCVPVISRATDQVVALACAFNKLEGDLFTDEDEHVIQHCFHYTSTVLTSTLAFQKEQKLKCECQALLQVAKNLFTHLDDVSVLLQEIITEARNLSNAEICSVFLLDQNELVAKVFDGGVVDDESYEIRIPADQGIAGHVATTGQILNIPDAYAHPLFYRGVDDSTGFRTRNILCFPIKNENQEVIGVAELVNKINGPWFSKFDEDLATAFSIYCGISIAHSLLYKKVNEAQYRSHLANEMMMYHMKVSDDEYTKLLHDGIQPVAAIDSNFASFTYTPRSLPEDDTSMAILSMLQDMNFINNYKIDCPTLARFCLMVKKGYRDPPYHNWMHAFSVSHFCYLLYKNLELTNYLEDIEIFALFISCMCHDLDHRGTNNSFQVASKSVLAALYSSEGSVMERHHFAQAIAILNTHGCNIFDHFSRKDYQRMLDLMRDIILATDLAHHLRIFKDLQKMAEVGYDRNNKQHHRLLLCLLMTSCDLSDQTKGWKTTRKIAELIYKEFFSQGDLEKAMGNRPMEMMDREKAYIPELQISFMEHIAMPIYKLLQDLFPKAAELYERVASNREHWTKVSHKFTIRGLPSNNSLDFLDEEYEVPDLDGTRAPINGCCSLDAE

For orientation: IC50 means the concentration needed to halve the response being measured. Lower therefore signals greater potency. By % inhibition is commonly meant the relative decrease from the control value, in per cent. Higher therefore signals a strong effect. In the case of `COC(=O)C(CC(=O)O)Cc1ccc(OC)c(OC2CCCC2)c1` (centres unmarked) [ST 1504], the values for the 50% inhibitory concentration (IC50) (with PDE4 Activity (L)PDE4; in series [2]) were 8.7 µM and greater than 10 µM, respectively. Moreover, the “% inhibition” value with PDE IV is on record as 84%. Moreover, the H/L in [1] is greater than 1.15.
`COC(=O)/C(=C/c1ccc(OC)c(OC2CCCC2)c1)CC(=O)O` [ST 1503, (3E)-4-[3-(cyclopentyloxy)-4-methoxyphenyl]-3-(methoxycarbonyl)-3-butenoic acid] returned a 50% inhibitory concentration (IC50) in the series on PDE4 Activity (L)PDE4 of 6.2 µM.
What is called inhibition is the relative decrease from the control value, in per cent. As for `COC(=O)/C(=C/c1ccc(OC)c(OC2CCCC2)c1)CC(=O)NO` [ST 1701, methyl (2E)-3-[3-(cyclopentyloxy)-4-methoxyphenyl]-2-[2-(hydroxyamino)-2-oxoethyl]-2-propenoate], the “% PDE inhibition at 100 μM PDE4 (human)” value in the series with PDE4 came out at 94%. In addition, the 50% inhibitory concentration (IC50) in the series with PDE4 Activity (L)PDE4 was 1.2 µM; in [2], 0.615 µM. For the same compound, the “% PDE inhibition at 100 μM PDE3 (human)” value in the series with PDE3 is given as 52%. Also, the “% PDE inhibition at 100 μM PDE6 (bovine)” value in the series with PDE6 is 58%. In addition, the inhibition at 100 µM came out at 30% at PDE5 and 16% on PDE2. In addition, the “% PDE inhibition at 100 μM PDE1 (bovine)” value in the series with PDE1 is 42%. For the same compound, the “% inhibition” value with PDE IV came out at 88%. Besides, the H/L in series [1] is 0.51.
`COC(=O)C(CC(=O)NO)Cc1ccc(OC)c(OC2CCCC2)c1` (racemic) [ST 1505, (R,S)-3-methoxycarbonyl-4-(3-cyclopentyloxy-4-methoxyphenyl)butane-hydroxamic acid]: the IC50 in the series with PDE4 Activity (L)PDE4 turned out to be 4.7 µM; in series [2], 3.5 µM. In addition, the “% inhibition” value with PDE IV is reported as 86%. Further, in series [1], the H/L worked out at 0.74.
Regarding `COC(=O)/C(=C/c1ccc(OC)c(OC2CCCC2)c1)CCC(=O)O` [ST 1977, (4E)-5-[3-(ciclopentyloxy)-4-methoxyphenyl]-4-(methoxycarbonyl)-4-pentenoic acid], the IC50 in the series on PDE4 Activity (L)PDE4 worked out at 1.3 µM; in series [2], 9.27 µM. The H/L in series [1] came out at 7.13.
For `COC(=O)C/C(=C\c1ccc(OC)c(OC2CCCC2)c1)C(=O)OC` [ST 1945, methyl (3E)-3-methoxycarbonyl-4-(3-cyclopentoxy-4-methoxyphenyl)-3-butenoate], the concentration for half-maximal inhibition (IC50) stood at 0.19 µM with PDE4 Activity (L)PDE4 and 0.571 µM in [2]. Further, the H/L in series [1] is 0.33.
As a reminder, the melting point is the temperature of the solid-liquid transition. `COc1ccc(C(=O)CCC(=O)O)cc1OC1CCCC1` [ST 1689, 4-[3-(cyclopentyloxy)-4-methoxyphenyl]-4-oxo-butanoic acid]: the melting point is 111 to 113 °C.

(Values after patent publication US7169808B2, “Compounds useful for the preparation of medicaments with phosphodiesterase IV inhibitory activity” (Sigma-Tau Industrie Farmaceutiche Riunite S.p.A., priority 2000, dated 2007).)
